According to US10731216B2, “Methods and compositions for biomarkers of depression and pharmacoresponse” (priority 2014, dated 2020):
“Also recorded” adds a separate entry of the source. Like-named read-outs stand apart in the source and are kept apart here.

Tests used:
[1] = test system: mice; assay: MeHg model of developmental neurotoxicity, depression-like behavior; format: in vivo, mouse
[2] = test system: C57Bl/6 mice; assay: Forced swim test (FST), depression-like behavior; format: in vivo, mouse; conditions: for immobility time in FST after FLX treatment: 12 mo, FLX 80 mg/L in drinking water for 21 days
Procedure: […]; Sigma-Aldrich, Sweden) from gestational day (GD) 14 until delivery. The delivery day was recorded as postnatal day (PND) 0. The litters were culled to 4 pups/litter at PND3. The pups were weighed at PND3, 7, 14, and 21. At weaning (PND21), the mice were implanted subcutaneously with sterile radio-frequency identification (RFID) tags (Trovan Unique 100A, Trovan Ltd., UK) under brief isoflurane anesthesia. The transponders allowed unambiguous identification of animals and were also used for monitoring the activity in homecage environment. After implantation, the pups were redistributed to new cages so that each cage would house a maximum of 5 mice originating from different litters, and the distribution was maintained throughout the study. The mice were kept in an animal facility under 12 h:12 h light-dark (LD) cycle (light intensity 50 lx; light on at 6 a.m.) at constant temperature (22±1° C.) and humidity (50%±5%). The circadian zeitgeber (“time-giver”) time (ZT) 0 corresponds to the subjective sunrise, i.e., the onset of the light phase.
Adult male mice aged 7 weeks, 3 mo, or 12 mo were tested for depression-like behavior in the forced swim tests (FST). Briefly, the animals were individually placed in glass cylinders (24 cm height, 12 cm diameter) filled with water (23.5° C.) to a depth of 16 cm. The animals were exposed to a 15 min pretest followed by a 6 min test 24 h later. Test sessions were videotaped and analysed offline by one investigator who was blind to the treatment and exposure conditions. Immobility was defined as passive floating for at least 2 s. After documenting depression-like behavior at the age of 12 mo, the animals were treated with fluoxetine (FLX; a selective serotonin re-uptake inhibitor antidepressant) dissolved in drinking water (80 mg/L) for 21 days before repeating the test. In addition to FST, depression-like behavior was tested in a tail-suspension test (TST), as described below.

[3] = test system: hippocampal dentate gyrus; conditions: chronic FLX; for effect of FLX treatment on neurogenesis: 12 mo
[4] = test system: C57Bl/6 mice; assay: Tail-suspension test (TST); format: in vivo, mouse; conditions: prenatal DEX exposure; mice aged 12 mo
Procedure: The delivery day was recorded as postnatal day (PND) 0. The litters were culled to 4 pups/litter at PND3. The pups were weighed at PND3, 7, 14, and 21. At weaning (PND21), the mice were implanted subcutaneously with sterile radio-frequency identification (RFID) tags (Trovan Unique 100A, Trovan Ltd., UK) under brief isoflurane anesthesia. The transponders allowed unambiguous identification of animals and were also used for monitoring the activity in homecage environment. After implantation, the pups were redistributed to new cages so that each cage would house a maximum of 5 mice originating from different litters, and the distribution was maintained throughout the study. The mice were kept in an animal facility under 12 h:12 h light-dark (LD) cycle (light intensity 50 lx; light on at 6 a.m.) at constant temperature (22±1° C.) and humidity (50%±5%). The circadian zeitgeber (“time-giver”) time (ZT) 0 corresponds to the subjective sunrise, i.e., the onset of the light phase.
For TST, the mice were allowed to acclimatize in the testing room for at least 30 min before the experiment. The mice were suspended by the tail 15 cm above the table (using adhesive tape placed approx. 2 cm from the base of the tail). Soft padding was provided in order to prevent injuries in case the animal escaped or fell down because of tape failure. After 6 min, the animal were released and placed in the homecage. […]

[5] = Corticosterone metabolites in feces; format: in vivo, mouse; conditions: prenatal DEX exposure, 12 mo
Procedure: The circadian pattern of GC secretion at 12 mo was investigated using a minimally invasive approach. To this end, spontaneous fecal boli were collected between ZT1-2 and ZT12-14 (i.e., immediately after the transition between the light and dark phases of the LD cycle). The feces were collected in sterile Eppendorf tubes and stored at −80° C. until further processing. Samples from each mouse were collected on two occasions (7 day interval between samplings) and the measurements for each mouse were averaged before analysing the differences across the LD cycle. The concentration of corticosterone metabolites in dry fecal extracts was measured by enzyme immunoassay according to manufacturer's instructions (DetectX™, Arbor Assays, Ann Arbor, […]., USA).

[6] = test system: Bmal1; assay: Bmal1 expression in primary fibroblast cultures from control and DEX-exposed mice (qPCR); format: cell-based, mouse; conditions: fibroblasts from prenatally DEX-exposed mice aged 6 mo; synchronised with 1 μM DEX
Procedure: (§1) Tissue samples (˜0.25 cm^2) were harvested from the ear of adult (6 mo) control and DEX-exposed mice under terminal anesthesia. The tissue was rinsed in Hank's Balanced Salt Solution (HBSS) (Life Technologies Europe BV, Stockholm, Sweden), then minced with sterile razor blade into Collagenase (Type XI-S) (Sigma-Aldrich, Sweden) (30 min at 37° C.). After digestion, 3 ml of DMEM Medium (Life Technologies) supplemented with 10% Fetal Bovine Serum and 1% Penicillin/Streptomycin (Life Technologies) was added to a 6 cm plate and the samples were incubated at 37° C. for at least 6 days. After passaging (0.05% Trypsin-EDTA; Invitrogen), the cells were plated in 12 multi-well plates in MEF medium (DMEM Medium+10% FBS+1% pen/strep) at a density of at least 50 k/cm^2. […] The cells were then collected between 6 and 36 h after synchronisation. The relative expression of Bmal1 was assessed by qPCR with Gapdh as housekeeping gene as described in Example 1 (Table 2: SEQ ID NO 5 and 6, and 1 5 and 2, respectively).

[7] = test system: BMAL1, PER1 and PER2; assay: Clock gene mRNA expression in primary human fibroblasts after DEX synchronisation (qPCR); format: cell-based; conditions: 1 μM DEX; fibroblasts from healthy subjects; 6-36 h after synchronisation
Procedure: A skin biopsy (about 5×2 mm) was collected from the internal aspect of the arm under sterile conditions after local anesthesia using EMLA patches (AstraZeneca, Sodertalje, Sweden). The wound was then covered with a sterile patch, and a small scar is formed typically within […]. The tissue sample was quickly transferred to ice-cold HBSS (Life Technologies Europe BV, Stockholm, Sweden) and minced with a sterile razor blade into Collagenase (Type XI-S) (Sigma-Aldrich, Sweden) (30 min at 37° C.). After digestion, 3 ml of DMEM Medium (Life Technologies) supplemented with 10 mM Hepes buffer, sodium pyruvate, non-essential amino acid mixture, glutamax, 20% Fetal Bovine Serum, and 1% Penicillin/Streptomycin (all supplements were from Life Technologies) was added to a 6 cm plate and the samples were incubated at 37° C. until the fibroblasts reached confluence (typically 3-4 weeks). The confluent fibroblast cultures were passaged (0.05% Trypsin-EDTA; Invitrogen) then plated in 12 multi-well plates at a density of at least 50 k/cm^2 in the same medium as used above. […] The cells were collected between 6 and 36 h after synchronisation. The relative mRNA expression of BMAL1, PER1 and PER2 (Table 2: SEQ ID NO 19 and 20) was assessed by qPCR with HP RT (Table 2: SEQ ID NO 13 and 14) as housekeeping gene. The qPCR procedure is described in Example 1.

[8] = test system: C57Bl/6 mice; assay: Homecage spontaneous activity (cosinor, periodogram, detrended fluctuation analysis)
Procedure: The spontaneous activity of mice aged 1, 3, 5, and 12 mo (N=7-8/group) was recorded using the TraffiCage™ system (NewBehavior, Zurich, Switzerland). Briefly, the system consists of an array of radio frequency (RF) antennas placed under the cage with group-housed, freely moving mice. The antennas read the RFID tags and provide an approximate location of each animal with a time resolution of 20 ms. The time interval during which an animal is detected constantly by the same antenna is defined as a “visit.” When an animal changes location enough to be detected by another antenna, a new visit is recorded. Each visit is described by the start time and duration. For long recordings, the number of visits is virtually equal to the number of transitions, and can be used as activity count. The time series of visits are exported as ASCII files and analysed using custom routines developed in Matlab™ R2013b (The MathWorks™, Natick, Md., USA).
The mice were housed in a climate-controlled, isolated room for a period of 6 to 7 weeks, with minimal interactions with human experimenters (except for changing the cage and to replenish food and water, which occurred at random times throughout the experiment). The synchronisation of activity monitoring with the LD cycle was ensured by using a remote control device (TellStick™, Telldus Technologies AB, Lund, Sweden) operated by the computer running TraffiCage™ control software. To minimize the effects of novelty and possible interference from circadian rhythm entrainment, the baseline measurements were derived based on 3 LD cycles after an acclimation period of at least 3 LD cycles.
The analysis of circadian rhythmicity consisted of rhythmometry by means of cosinor analysis. […] We next analysed spontaneous activity by detrended fluctuation analysis (DFA). The method is based on linear regression analysis of the residual variance of the time series against the time scale used for detrending on double-logarithmic plots. The slope of a linear regression in double-logarithmic plot translates into a scaling exponent, and describes the long-term autocorrelation patterns embedded in the time series.

[9] = test system: Per2 promoter; assay: Luciferase reporter assay in Per2::Luc primary mouse fibroblasts after DEX synchronisation; format: cell-based; conditions: 1 μM DEX single pulse
Procedure: The generation of knock-in mice expressing firefly luciferase under the control of Per2 promoter (Per2::Luc) has been described previously (Yoo et al. 2004).
as §1, with “samples (about 0.25” for “samples (˜0.25”, “and Dex-exposed” for “and DEX-exposed”, “The number of photons emitted by each culture dish was counted over 1 minute every 10 min (time resolution: 6 data points/h). The time series” for “The cells”, “were further analyzed by means” for “were then collected between 6 and 36 h after synchronisation. The relative expression”, “of cosinor analysis” for “of Bmal1 was assessed by qPCR with Gapdh as housekeeping gene”, “Example 4.” for “Example 1 (Table 2: SEQ ID NO 5 and 6, and 1 5 and 2, respectively).”

CNCCC(Oc1ccc(C(F)(F)F)cc1)c1ccccc1 (stereo not drawn) [FLX, fluoxetine]
reversal of depression-like behavior by antidepressant treatment ([1]; young adults (2-3 months)): reversed | reversal of depression-like behavior by antidepressant treatment ([2]; DEX model, middle-aged mice (12 months)): not reversed | immobility time in FST after FLX treatment ([2]; DEX-exposed mice): not altered | immobility time in FST after FLX treatment ([2]; control mice): decreases | effect of FLX treatment on neurogenesis ([3]; DEX-exposed mice): did not have any significant effect; also recorded: has no effect | effect of FLX treatment on neurogenesis ([3]; controls): reduces | number of DCX+ cells after FLX ([3]; middle-aged controls): decreased

[CH3][Hg][Cl] [MeHg, methylmercury]
depression-like behavior after developmental exposure [1]: detectable in young adults

C[C@@H]1C[C@H]2[C@@H]3CCC4=CC(=O)C=C[C@]4(C)[C@@]3(F)[C@@H](O)C[C@]2(C)[C@@]1(O)C(=O)CO [DEX, dexamethasone]
depression-like phenotype in tail suspension test [4]: reconfirmed | levels of corticosterone metabolites in the feces vs controls [5]: lower levels | circadian fluctuations in GC secretion ([5]; ZT1-2 vs ZT12-14): did not show significant circadian fluctuations | oscillations in Bmal1 expression vs control mice [6]: attenuated oscillations | immobility time in FST vs controls ([2]; prenatal DEX 0.05 mg/kg/day s.c. from GD14 until delivery, male offspring at 12 mo): increased | period of oscillations in clock gene mRNA expression after DEX synchronisation [7]: about 24 h | scaling coefficient of spontaneous activity (detrended fluctuation analysis) ([8]; one DEX-exposed mouse (FIG. 6D), control mouse 0.82): 0.88 | amplitude of circadian rhythm (cosinor), baseline vs forced synchronisation ([8]; prenatal DEX exposure): no significant difference | circadian period of spontaneous activity ([8]; prenatal DEX exposure, 12 months old, constant steady entrainment): shorter | amplitude of circadian rhythm (cosinor) at baseline vs controls ([8]; prenatal DEX exposure, LD cycle baseline): larger | scaling exponent, free-running vs circadian entrainment conditions ([8]; prenatal DEX exposure, all ages investigated): significant fluctuations | acrophase, baseline vs forced synchronisation ([8]; prenatal DEX exposure, mice aged 3 mo and older): did not vary | time over which oscillations can be detected after initial DEX synchronisation [9]: ≤ 10 days
